Data reported in BindingDB's records for doi:10.1021/acs.jmedchem.7b00306 (Bayer, 2017).

Target: T1, Bromodomain-containing protein 1 (Homo sapiens, UniProt O95696)
T1 sequence (O95696 whole entry): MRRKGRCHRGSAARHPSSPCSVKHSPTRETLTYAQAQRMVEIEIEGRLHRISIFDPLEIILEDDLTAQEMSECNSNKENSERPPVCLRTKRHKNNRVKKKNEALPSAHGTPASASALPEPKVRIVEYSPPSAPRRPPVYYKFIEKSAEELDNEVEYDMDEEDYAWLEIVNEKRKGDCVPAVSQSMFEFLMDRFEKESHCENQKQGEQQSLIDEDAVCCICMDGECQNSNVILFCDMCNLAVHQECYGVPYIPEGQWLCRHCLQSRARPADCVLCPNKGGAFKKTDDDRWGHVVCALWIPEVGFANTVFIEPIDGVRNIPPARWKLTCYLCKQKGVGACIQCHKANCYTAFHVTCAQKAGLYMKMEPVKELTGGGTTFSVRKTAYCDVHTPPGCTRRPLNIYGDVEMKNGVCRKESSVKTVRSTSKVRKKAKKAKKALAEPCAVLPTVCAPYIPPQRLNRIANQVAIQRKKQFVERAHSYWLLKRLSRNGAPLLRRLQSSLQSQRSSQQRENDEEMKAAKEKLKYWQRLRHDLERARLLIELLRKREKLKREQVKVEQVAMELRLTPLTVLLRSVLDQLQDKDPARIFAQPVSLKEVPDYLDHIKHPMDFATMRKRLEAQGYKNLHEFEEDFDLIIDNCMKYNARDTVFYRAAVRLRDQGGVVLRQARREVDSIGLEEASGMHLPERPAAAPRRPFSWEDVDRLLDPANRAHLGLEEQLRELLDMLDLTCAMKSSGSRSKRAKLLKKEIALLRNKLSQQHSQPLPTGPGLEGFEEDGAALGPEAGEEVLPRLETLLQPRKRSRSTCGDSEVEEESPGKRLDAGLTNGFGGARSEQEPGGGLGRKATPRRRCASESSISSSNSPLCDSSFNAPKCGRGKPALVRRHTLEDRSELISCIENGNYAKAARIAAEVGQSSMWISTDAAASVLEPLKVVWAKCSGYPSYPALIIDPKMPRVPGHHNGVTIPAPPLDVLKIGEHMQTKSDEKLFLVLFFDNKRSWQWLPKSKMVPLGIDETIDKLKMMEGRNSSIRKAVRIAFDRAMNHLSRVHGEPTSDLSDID
Test: Alphascreen assay. Binding to BRD1A (domain start/stop: E556-A688) by alphascreen assay

IC50: 1.68 µM
SMILES: COc1cc2c(cc1NS(=O)(=O)c1ccc(Br)cc1C)n(C)c(=O)n2C [OF-1]
